ChEMBL document CHEMBL1201862, “PubChem BioAssay data set” (2004)
Active and inactive are the calls of the source.

Experiments:
Cytochrome P450 3A4 = Cytochrome P450 3A4 (Homo sapiens, UniProt P08684);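 also: CYP3A4 tested as one member of a cytochrome P450 panel screen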
[1] = biological target: T1, RNA-binding protein pos-1 (Caenorhabditis elegans, UniProt G5EF15); test: disruptors of C. elegans POS-1 RNA interaction – biochemical, fluorescence polarization, dose response (AID 1964);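 also: purified POS-1 fused to maltose binding protein made in E. coli; potency of compounds blocking POS-1 binding to fluorescent RNA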
T1 sequence (G5EF15 whole entry): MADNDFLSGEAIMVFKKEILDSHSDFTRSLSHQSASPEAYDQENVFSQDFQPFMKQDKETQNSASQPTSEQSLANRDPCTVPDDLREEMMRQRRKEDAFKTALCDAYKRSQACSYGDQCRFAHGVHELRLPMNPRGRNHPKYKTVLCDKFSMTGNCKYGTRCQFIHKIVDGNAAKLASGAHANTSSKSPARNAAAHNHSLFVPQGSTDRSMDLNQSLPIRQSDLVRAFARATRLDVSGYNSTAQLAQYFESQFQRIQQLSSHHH

[2] = biological target: T2, Zinc finger protein mex-5 (Caenorhabditis elegans, UniProt Q9XUB2); test: potency of MEX-5 RNA-binding blockers – biochemical, C. elegans, fluorescence polarization, dose response (AID 1960)
T2 sequence (Q9XUB2 whole entry): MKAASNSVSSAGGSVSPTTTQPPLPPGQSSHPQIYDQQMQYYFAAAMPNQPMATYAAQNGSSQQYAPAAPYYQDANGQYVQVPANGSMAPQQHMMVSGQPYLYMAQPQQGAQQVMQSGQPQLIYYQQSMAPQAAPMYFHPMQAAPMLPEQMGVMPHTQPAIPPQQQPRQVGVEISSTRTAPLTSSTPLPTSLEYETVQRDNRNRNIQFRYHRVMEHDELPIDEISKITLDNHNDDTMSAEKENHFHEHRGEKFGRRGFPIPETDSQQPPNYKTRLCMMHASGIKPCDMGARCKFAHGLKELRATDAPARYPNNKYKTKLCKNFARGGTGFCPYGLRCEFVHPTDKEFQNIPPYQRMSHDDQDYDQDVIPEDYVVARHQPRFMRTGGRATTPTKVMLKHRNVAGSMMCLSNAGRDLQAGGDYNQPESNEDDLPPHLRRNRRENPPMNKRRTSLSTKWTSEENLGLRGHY

[3] = NIH-3T3 fibroblast cytotoxicity, dose response, cytotoxicity control, cell-based, fluorescence, Alamar Blue, secondary assay (AID 2327); type: functional;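 also: NIH-3T3 mouse fibroblasts cultured with fluconazole at 8 µg/mL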
[4] = fluconazole-exposed Candida albicans growth modulators – fluorescence, retest, confirmation (AID 2467); type: functional, cell-based
[5] = biological target: T3, Heat shock factor protein 1 (Mus musculus, UniProt P38532); test: enhancement of HSF1-driven luciferase signal – cell-based, NIH3T3, luminescence, dose retest, confirmation (AID 435004); type: functional;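 also: stress induced by proteasome inhibitor MG132 added 30 min after compound; luciferase reporter driven by HSF1 response element in NIH3T3 cells; actives raise luminescence as potentiators of the MG132 stress response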
T3 sequence (P38532 whole entry): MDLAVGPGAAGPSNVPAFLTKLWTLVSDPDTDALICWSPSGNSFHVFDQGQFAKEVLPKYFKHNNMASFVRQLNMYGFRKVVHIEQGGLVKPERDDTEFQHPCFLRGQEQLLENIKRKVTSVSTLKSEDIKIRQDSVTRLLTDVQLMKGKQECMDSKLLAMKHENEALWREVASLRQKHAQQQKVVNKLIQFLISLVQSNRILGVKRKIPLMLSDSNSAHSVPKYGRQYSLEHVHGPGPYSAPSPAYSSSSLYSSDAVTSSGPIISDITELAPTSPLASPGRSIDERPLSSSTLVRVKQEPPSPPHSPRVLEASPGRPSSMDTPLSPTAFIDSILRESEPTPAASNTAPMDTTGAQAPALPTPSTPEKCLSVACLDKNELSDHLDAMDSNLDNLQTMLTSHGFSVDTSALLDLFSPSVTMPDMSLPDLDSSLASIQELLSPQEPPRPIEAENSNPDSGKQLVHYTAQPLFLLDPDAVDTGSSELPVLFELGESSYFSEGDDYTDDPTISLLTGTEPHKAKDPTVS

Cytochrome P450 2C9 = Cytochrome P450 2C9 (Homo sapiens, UniProt P11712)
[6] = Trypanosoma cruzi growth suppression in host cells – NIH3T3 host cells, beta-gal luminescence, confirmation (AID 2044); type: functional, cell-based;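 also: intracellular parasites grown in NIH/3T3 mouse fibroblasts as host cells; luminescent beta-galactosidase reporter signal from transgenic T. cruzi replicating inside host cells; inhibitors lower the luminescence signal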
[7] = NIH3T3 cell viability loss – ATP luminescence, mouse fibroblasts, counter-screen, dose response (AID 2010); type: functional, cell-based;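 also: cells exposed to compound for about 90 hours before reading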
Cytochrome P450 2C19 = Cytochrome P450 2C19 (Homo sapiens, UniProt P33261); test: Cytochrome panel assay with activity outcomes. Panel member name: p450-cyp2c19 Compounds with AC50 equal or less than 10 uM are considered active; type: functional; conditions: read-out: AC50
[8] = luciferase reporter signal suppression in cells – H4 neuroglioma cells, luminescence, dose response (AID 1990); type: functional, cell-based
[9] = Luminescence Cell-Based Dose Response HTS to Identify Inhibitors of 5'UTR Stem-Loop Driven Prion Protein mRNA Translation in H4 Neuroglioblastoma Cells. [Related pubchem assays: 1827 (Project Summary), 1813 (Primary HTS)]; type: functional
[10] = alpha-synuclein stem-loop luciferase translation blockers – H4 neuroglioma cells, luminescence, confirmation (AID 1988); type: functional, cell-based
Protein RecA = biological target: T4, Protein RecA (Mycobacterium tuberculosis, UniProt P9WHJ3); test: Fluorescence Cell-Free Homogeneous Dose Retest to Identify Inhibitors of RecA-Intein Splicing Activity. [Related pubchem assays (depositor defined):AID2097, AID2223, AID489010, AID492950]; type: functional
T4 sequence (P9WHJ3 whole entry): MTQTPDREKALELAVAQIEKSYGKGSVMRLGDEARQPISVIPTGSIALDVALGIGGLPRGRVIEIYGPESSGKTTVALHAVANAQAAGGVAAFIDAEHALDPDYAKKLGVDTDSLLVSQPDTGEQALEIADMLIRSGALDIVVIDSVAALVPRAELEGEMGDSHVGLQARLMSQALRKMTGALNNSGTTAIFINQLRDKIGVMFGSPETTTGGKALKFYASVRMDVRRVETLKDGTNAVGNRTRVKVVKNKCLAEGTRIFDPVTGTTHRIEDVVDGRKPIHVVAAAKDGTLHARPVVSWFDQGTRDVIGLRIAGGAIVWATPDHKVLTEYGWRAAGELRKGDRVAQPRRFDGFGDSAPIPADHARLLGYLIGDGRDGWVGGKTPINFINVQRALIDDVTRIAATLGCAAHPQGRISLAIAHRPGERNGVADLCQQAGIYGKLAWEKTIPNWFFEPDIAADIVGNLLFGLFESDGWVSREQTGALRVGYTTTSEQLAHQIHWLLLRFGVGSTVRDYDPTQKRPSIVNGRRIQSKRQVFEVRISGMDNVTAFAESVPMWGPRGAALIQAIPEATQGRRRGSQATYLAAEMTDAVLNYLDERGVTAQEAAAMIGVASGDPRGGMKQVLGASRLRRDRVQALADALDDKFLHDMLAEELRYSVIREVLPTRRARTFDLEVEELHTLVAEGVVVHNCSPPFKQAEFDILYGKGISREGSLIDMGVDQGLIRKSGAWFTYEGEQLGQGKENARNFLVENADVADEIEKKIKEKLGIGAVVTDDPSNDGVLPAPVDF

Chain of Cytochrome P450 2C9 (P11712 whole entry): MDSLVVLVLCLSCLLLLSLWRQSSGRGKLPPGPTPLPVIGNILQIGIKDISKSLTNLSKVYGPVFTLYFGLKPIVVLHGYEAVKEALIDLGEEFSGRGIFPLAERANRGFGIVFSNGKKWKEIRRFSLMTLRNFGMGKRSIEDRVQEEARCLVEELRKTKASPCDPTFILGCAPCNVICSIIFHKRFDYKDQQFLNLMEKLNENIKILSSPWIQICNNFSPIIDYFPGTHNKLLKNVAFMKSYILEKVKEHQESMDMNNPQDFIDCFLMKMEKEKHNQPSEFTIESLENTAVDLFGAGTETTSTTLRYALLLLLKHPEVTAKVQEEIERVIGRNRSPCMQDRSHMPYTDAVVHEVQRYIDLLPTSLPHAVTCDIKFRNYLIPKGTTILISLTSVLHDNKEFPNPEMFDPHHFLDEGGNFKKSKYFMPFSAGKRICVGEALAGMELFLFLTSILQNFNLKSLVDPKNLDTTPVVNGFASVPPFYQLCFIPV
Chain of Cytochrome P450 2C19 (P33261 whole entry): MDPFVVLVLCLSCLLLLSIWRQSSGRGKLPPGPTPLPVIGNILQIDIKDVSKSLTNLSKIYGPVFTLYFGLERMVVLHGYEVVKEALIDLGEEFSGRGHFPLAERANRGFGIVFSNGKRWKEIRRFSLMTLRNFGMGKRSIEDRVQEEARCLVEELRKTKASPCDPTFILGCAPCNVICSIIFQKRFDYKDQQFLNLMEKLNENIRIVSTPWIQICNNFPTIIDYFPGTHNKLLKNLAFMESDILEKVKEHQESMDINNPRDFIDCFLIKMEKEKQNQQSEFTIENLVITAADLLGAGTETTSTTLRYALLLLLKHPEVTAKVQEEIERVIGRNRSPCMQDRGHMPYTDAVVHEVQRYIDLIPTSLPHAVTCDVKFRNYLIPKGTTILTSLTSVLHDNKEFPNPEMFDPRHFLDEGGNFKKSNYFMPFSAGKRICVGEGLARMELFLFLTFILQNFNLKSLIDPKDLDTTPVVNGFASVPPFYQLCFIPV
Chain of Cytochrome P450 3A4 (P08684 whole entry, the tested form may be a part): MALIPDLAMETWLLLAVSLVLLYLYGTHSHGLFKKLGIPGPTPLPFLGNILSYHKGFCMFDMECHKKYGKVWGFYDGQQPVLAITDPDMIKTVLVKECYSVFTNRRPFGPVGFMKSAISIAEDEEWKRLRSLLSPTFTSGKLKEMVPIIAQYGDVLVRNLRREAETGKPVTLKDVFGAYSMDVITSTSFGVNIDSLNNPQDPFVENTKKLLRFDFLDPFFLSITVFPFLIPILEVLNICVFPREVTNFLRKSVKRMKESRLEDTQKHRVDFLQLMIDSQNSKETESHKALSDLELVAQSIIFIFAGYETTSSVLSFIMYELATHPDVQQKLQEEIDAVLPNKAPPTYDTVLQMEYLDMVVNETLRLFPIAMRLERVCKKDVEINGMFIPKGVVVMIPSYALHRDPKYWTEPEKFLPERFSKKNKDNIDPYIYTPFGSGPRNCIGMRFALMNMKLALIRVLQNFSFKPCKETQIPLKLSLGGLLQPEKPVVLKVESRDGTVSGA

Cc1ccc(OCCCC(=O)NCc2ccco2)cc1
AC50 (Cytochrome P450 3A4): 17.8 µM (inconclusive)

Cc1cc2c3c(c1)C1(C(=O)N3C(C)(C)CC2C)C(C#N)=C(N)OC2=C1C(=O)CC(C)(C)C2 (stereo unspecified)
EC50 [1]: > 300 µM (not active)
EC50 [2]: > 300 µM (not active)

O=c1c(-c2cccs2)nc2cnc(N3CCOCC3)nc2n1CCc1ccccc1
AC50 (Cytochrome P450 3A4): 12.6 µM (inconclusive)

Cc1ccc(CS(=O)(=O)CCC(=O)NCCCOC(C)C)cc1
AC50 (Cytochrome P450 3A4): 35.5 µM (inconclusive)

CN1C[C@H](CO)C=C2c3cccc4[nH]cc(c34)C[C@@H]21
AC50 (Cytochrome P450 3A4): 12.6 µM (inconclusive)

CC1CCCN(C(=O)c2cccc(S(=O)(=O)Nc3cc(C(F)(F)F)ccc3Cl)c2)C1 (stereo unspecified)
EC50 [3]: > 150 µM (inactive)
EC50 [4]: > 38 µM (not active)

Clc1ccc(CNC2CCN(Cc3ccccc3)CC2)cc1
EC50 [5]: > 260 µM (inactive)

CSCC(C)N1CCC(n2nccc2NC(=O)CCCc2ccccc2)CC1 (stereo unspecified)
EC50 [1]: 6.99 µM (active)
EC50 [2]: 8.67 µM (active)

CCOC(=O)c1sc(Nc2nc3c(OC)cccc3s2)nc1C
EC50 [3]: 48.9 µM (active)
EC50 [4]: 2.8 µM (active)

COc1ccc(NC(=O)c2cccs2)c([N+](=O)[O-])c1
AC50 (Cytochrome P450 2C9): 7.94 µM (inconclusive)

CCOc1cc(N2CCOCC2)c(OCC)cc1NC(=O)Cc1cccc2ccccc12
EC50 [5]: > 260 µM (inactive)

Nc1ccc(S(=O)(=O)NNC(=O)C(=O)NNc2ccccc2)cc1
EC50 [3]: 1.48 µM (active)
EC50 [4]: > 38 µM (not active)
EC50 [6]: 0.75 µM (active)
EC50 [7]: 1.96 µM (active)

CC(C)=NO[C@@H](C)c1cc(-c2c(C)cc(C)cc2C)no1
AC50 (Cytochrome P450 2C19): 0.631 µM (inconclusive)
AC50 (Cytochrome P450 3A4): 3.16 µM (inconclusive)

NS(=O)(=O)c1cc(C(=O)O)c(O)c2ccccc12
AC50 (Cytochrome P450 2C9): 3.98 µM (inconclusive)

CC(C)NC(=O)N1CCCC2(CCN(C(=O)c3cccn3C)CC2)C1
AC50 (Cytochrome P450 3A4): 25.1 µM (inconclusive)

CCOC(=O)c1c(C)[nH]c(C)c1S(=O)(=O)N1CCN(c2cccc(C)c2)C(C)C1 (stereo unspecified)
EC50 [5]: > 260 µM (inactive)

COc1cccc(CN2C(=O)C3(C(C#N)=C(N)OC4=C3C(=O)CCC4)c3ccccc32)c1 (stereo unspecified)
EC50 [3]: > 160 µM (inconclusive)
EC50 [8]: 19.2 µM (active)
EC50 [1]: > 300 µM (not active)
EC50 [9]: > 120 µM (not active)
EC50 [2]: > 300 µM (not active)
EC50 [10]: 20.1 µM (active)
EC50 [4]: 1.24 µM (active)

O=C(NNC(=O)c1cnccn1)c1cccc([N+](=O)[O-])c1
EC50 [1]: 22.1 µM (active)
EC50 [2]: 1.03 µM (active)

CC(C)(C)c1nn(-c2ccccc2)c2[nH]c(=O)c(CNCc3ccco3)cc12
EC50 [1]: > 300 µM (not active)
EC50 [2]: > 300 µM (not active)

COc1ccc(NS(=O)(=O)c2cc(NC(=O)c3cnccn3)ccc2N2CCCC2)cc1
EC50 [5]: > 260 µM (inactive)

CCCc1cc(=O)oc2cc(C)c(CN3CCCC3)c(O)c12
EC50 [5]: > 260 µM (inactive)

C=CCN1C(=O)S/C(=C\c2ccc(N3CCOCC3)cc2C)C1=O
EC50 [1]: 40.8 µM (active)
EC50 [2]: 61.3 µM (inconclusive)

O=S(=O)(Nc1cccc2ccccc12)c1cccc2nonc12
EC50 [5]: > 260 µM (inactive)

O=C(CCC(=O)Nc1ccccc1Cl)NNS(=O)(=O)c1ccc(Cl)cc1
EC50 [3]: > 160 µM (inactive)
EC50 [4]: > 38 µM (not active)

CC(C)C(C(=O)NCc1ccccc1)N(CC1CCCO1)C(=O)CNS(=O)(=O)c1ccccc1 (stereo unspecified)
EC50 [5]: > 260 µM (inactive)

CC(=O)Nc1ccc(S(=O)(=O)NCc2nc(-c3cccc(C)c3)no2)cc1
EC50 [1]: 85.6 µM (active)
EC50 [2]: > 300 µM (not active)

ONc1cccnc1-n1nc(C(F)(F)F)cc1C(F)(F)F
EC50 (Protein RecA): > 380 µM (inconclusive)

CCCOc1cccc(C(=O)Nc2cccnc2)c1
EC50 [3]: > 150 µM (inactive)
EC50 [4]: > 38 µM (not active)

Cc1cc(C(F)(F)F)n2nc(-c3cnn(C)c3C(F)(F)F)cc2n1
AC50 (Cytochrome P450 3A4): 17.8 µM (inconclusive)
AC50 (Cytochrome P450 2C9): 7.08 µM (inconclusive)

O=C(Nc1ccc(Br)cn1)c1ccc2nccnc2c1
EC50 [1]: > 300 µM (not active)
EC50 [2]: > 300 µM (not active)

COc1ccc2c(c1)CCN=C2Cc1ccc(OC)c(OC)c1
EC50 [3]: 66.8 µM (active)
EC50 [8]: > 120 µM (not active)
EC50 [9]: > 120 µM (not active)
EC50 [10]: > 120 µM (not active)
EC50 [4]: > 38 µM (not active)

N#CCCn1c(=O)c(-c2cccs2)nc2cnc(Oc3cccc(Cl)c3)nc21
AC50 (Cytochrome P450 3A4): 7.94 µM (inconclusive)
AC50 (Cytochrome P450 2C9): 6.31 µM (inconclusive)

Cc1c(Cl)cccc1N1C(=O)NC(=O)/C(=C\c2cc(C)n(-c3cccc(C(=O)O)c3C)c2C)C1=O
EC50 [1]: > 300 µM (not active)
EC50 [2]: > 300 µM (not active)

O=S(=O)(c1ccc(-n2cnnn2)cc1)N1CCNCC1
EC50 [5]: > 260 µM (inactive)

COCCNC(=O)C(c1ccc(C)cc1)N(C(=O)CCC(=O)Nc1ccccn1)c1ccccc1C (stereo unspecified)
EC50 [5]: > 260 µM (inactive)

C=CCNC(=O)CSc1nnc(C(CC)N(C)C)n1C1CCCCC1 (stereo unspecified)
EC50 [5]: > 260 µM (inactive)

Cc1cc(C)cc(N(C(=O)c2ccccn2)C(C(=O)NC2CCCCC2)c2cccs2)c1 (stereo unspecified)
AC50 (Cytochrome P450 2C19): 17.8 µM (inconclusive)
AC50 (Cytochrome P450 2C9): 15.8 µM (inconclusive)

COc1ccc(C2/C=C\CN(S(=O)(=O)/C=C/c3ccccc3)[C@H](Cc3ccccc3)C(=O)N2Cc2ccc(F)cc2)cc1 (stereo partly specified)
EC50 [5]: > 260 µM (inactive)

O=C(Cn1nnc2ccccc21)N/N=C\C=C\c1ccccc1
AC50 (Cytochrome P450 2C19): 14.1 µM (inconclusive)
AC50 (Cytochrome P450 2C9): 12.6 µM (inconclusive)

CS(=O)(=O)c1ccc(-c2cc(Br)sc2-c2ccc(F)cc2)cc1 [DUP-697]
AC50 (Cytochrome P450 3A4): 20 µM (inconclusive)

Nc1n[nH]c2nc3ccccc3nc12 [QUINOXALINE1]
AC50 (Cytochrome P450 3A4): 0.126 µM (inconclusive)
